Test results taken from patent publication US20110039784A1, “COMPOSITION FOR TREATMENT OF ERECTILE DYSFUNCTION” (SUNGKYUNKWAN UNIVERSITY Foundation for Corporate …, priority 2009, published 2011).
Changes are numbered by the printed parent chain. Values belong to the compound of their own block, whether it stands above or below them. Ends that are not written are not given here.

What was measured:
[1] = molecular target: T1, TRPC6 ion channel (Mus musculus, UniProt Q61143); assay: Whole-cell patch clamp in HEK 293 cells transfected with wild-type TRPC6; type: cell-based; conditions: for whole-cell current at −100 mV: TRPC6-transfected HEK cells, n=5; for change of whole-cell current on application: membrane potential held at −60 mV, symmetrical 140 mM Cs, 200 μM PE or 100 μM CCh
T1 construct: expressed in transfected cells; host or cells: HEK 293
T1 sequence (Q61143 1-930): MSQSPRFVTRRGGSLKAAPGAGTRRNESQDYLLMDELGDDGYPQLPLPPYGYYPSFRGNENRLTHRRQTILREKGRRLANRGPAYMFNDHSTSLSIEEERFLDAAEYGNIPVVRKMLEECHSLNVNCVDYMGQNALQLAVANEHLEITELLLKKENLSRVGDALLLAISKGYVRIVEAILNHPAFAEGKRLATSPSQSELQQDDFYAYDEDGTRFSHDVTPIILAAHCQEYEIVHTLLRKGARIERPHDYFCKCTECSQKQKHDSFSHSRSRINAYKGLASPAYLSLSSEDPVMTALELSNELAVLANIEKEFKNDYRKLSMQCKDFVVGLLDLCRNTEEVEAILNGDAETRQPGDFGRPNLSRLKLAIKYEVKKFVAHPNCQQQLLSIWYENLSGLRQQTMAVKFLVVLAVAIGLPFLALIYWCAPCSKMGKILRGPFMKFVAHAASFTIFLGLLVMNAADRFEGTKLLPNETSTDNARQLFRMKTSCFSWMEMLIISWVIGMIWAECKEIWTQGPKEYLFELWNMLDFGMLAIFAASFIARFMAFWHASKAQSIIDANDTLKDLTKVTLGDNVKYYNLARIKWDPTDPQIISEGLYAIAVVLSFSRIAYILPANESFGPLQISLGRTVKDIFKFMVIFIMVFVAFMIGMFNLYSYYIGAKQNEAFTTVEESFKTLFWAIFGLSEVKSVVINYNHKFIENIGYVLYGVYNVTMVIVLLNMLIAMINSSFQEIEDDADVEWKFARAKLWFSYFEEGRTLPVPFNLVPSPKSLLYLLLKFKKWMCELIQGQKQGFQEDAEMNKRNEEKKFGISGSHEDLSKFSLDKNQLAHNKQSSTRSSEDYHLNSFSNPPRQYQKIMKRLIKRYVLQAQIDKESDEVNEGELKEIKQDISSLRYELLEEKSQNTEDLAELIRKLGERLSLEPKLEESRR
Description: The physiological function of the TRPC6 ion channel was examined in HEK cells which are free of ion channels. In this regard, GFP-TRPC6 pcDNA was transfected into HEK cells using a liposome and expressed therein. After the membrane potential was held at −60 mV, whole-cell currents were recorded in symmetrical 140 mM Cs conditions. […] At −100 mV, the current was −112.0±18.1 pA (n=5) in a 140 mM extracellular Cs condition, −90.0±15.0 pA (n=5) after adding 200 μM PE, and −460±169.5 pA (n=5) after adding 100 μM CCh. […] The PE/CCh-induced current was obtained after leak subtraction was performed (FIG. 3C).

[2] = test system: corporal smooth muscle cells; assay: Fura-2 intracellular calcium level in cultured corporal smooth muscle cells, ET-1 induced; type: cell-based, human; conditions: control corporal smooth muscle cells, n=3
Description: After fura-2 was loaded thereto, cultured corporal smooth muscle cells were measured for intracellular calcium levels. The extracellular addition of 50 nM endothelin-1 induced an increase in intracellular calcium level, with the separation of an initial increasing phase and a late constant phase (FIG. 7A).
Between the TRPC6 cDNA-transfected cells and the control cells, there are little differences in the initial phase. […] Intracellular calcium levels were also measured in the corporal smooth muscle cells where the dominant negative form of TRPC6 was expressed. […] Collectively, F340/380, accounting for ET-1-induced calcium increase, was measured to be 1.47±0.03 (n=3) in corporal smooth muscle cells (control), 1.53±0.09 (n=3) in corporal smooth muscle cells where TRPC6 was overexpressed, and 0±0 (n=3) in corporal smooth muscle cells where the dominant negative form of TRPC6 was expressed (FIG. 7D).

[3] = molecular target: T2, TRPC6 ion channel (Mus musculus, UniProt Q61143); assay: Whole-cell patch clamp in human corporal smooth muscle cells transfected with wild-type or dominant negative TRPC6; type: cell-based; conditions: after ET-1, 1 mM La^3+
T2 construct: expressed in transfected cells; host or cells: human corporal smooth muscle cells
T2 sequence (Q61143 1-930 A105V/R114W/A184S/Y371D/R436P/G437R/T905S): T1 sequence (Q61143 1-930) with A105V, R114W, A184S, Y371D, R436P, G437R, T905S
Description: As described with HEK cells, the wild-type TRPC6 cDNA was expressed. After being selected, green-fluorescent cells were examined for the activity of the ion channel using a whole-cell patch clamp technique. At the −60 mV holding membrane potential with the external solution changed from Na-rich normal tyrode solution to 140 mM Cs, the inward current was increased; whereas no currents changed upon external treatment with ET-1, a typical inducer of smooth muscle contraction. At −100 mV, the current was −535.9±162.4 pA (n=5) in 140 mM extracellular Cs, and −462.1±150.5 pA (n=5) after adding 100 nM ET-1. The current-voltage (I-V) relationship of corporal smooth muscle cells was similar to that of HEK cells activated by CCh. […] (FIG. 4)
For genetic regulation of the TRPC6 ion channel in corporal smooth muscle cells, the cells transfected with the dominant negative form of the TRPC6 ion channel were examined for electrophysiological function.

[4] = test system: maxi-K ion channel; assay: Whole-cell patch clamp in human corporal smooth muscle cells expressing rslo gene; type: cell-based, rat; conditions: rslo-expressed human corporal smooth muscle cells
From the text: As described with HEK cells, the rslo pcDNA was expressed. The ion channels were examined for activity using a whole-cell patch clamp technique. Under the condition of a pipette solution having a calcium concentration of pCa 6.5, the current was 60.1±7.2 pA/pF (n=22) at a membrane potential of +60 mV in the rslo-expressed cells, which increased in outward current four-fold compared to that of control (16.4±2 pA/pF n=9) (FIG. 9A). Under the condition of an intracellular calcium concentration of pCa 7, the current was 12.8±2 pA/pF (+60 mV, n=9) in the control and 38.1±7 pA/pF (+60 mV, n=13) in the rslo-expressed cells (FIG. 9B). […] The current-voltage (I-V) relationship was similar to that recorded in the HEK cells.

[5] = molecular target: T3, maxi-K ion channel (Rattus norvegicus, UniProt Q62976); assay: Whole-cell patch clamp in HEK 293 cells expressing rslo gene; type: cell-based; conditions: rslo-expressed HEK cells
T3 construct: GFP; expressed in transfected cells; host or cells: HEK 293
From the text: The maxi-K ion channel is known to play an important role in reducing the contraction of smooth muscle responsible for the modulation of penile erection and relaxation. Together with GFP, the α-subunit (rSlo) coding sequence of calcium-dependent potassium ion channel cloned from the rat brain was subcloned into pcDNA3.1(+). After the expression of rSlo gene in HEK cells, green-fluorescent cells were selected under a mercury lamp light and observed for the electrophysiological properties of the ion channels using a whole-cell patch clamp technique. Cells were used within 24˜48 hrs after expression. […] At an intracellular calcium level of pCa 7, the current was read 10.4±3.2 pA/pF (+60 mV, n=6) in the control and 100.5±15.4 pA/pF (n=6) in the rslo-expressed cells (FIG. 8B).

T3 sequence (Q62976 whole entry): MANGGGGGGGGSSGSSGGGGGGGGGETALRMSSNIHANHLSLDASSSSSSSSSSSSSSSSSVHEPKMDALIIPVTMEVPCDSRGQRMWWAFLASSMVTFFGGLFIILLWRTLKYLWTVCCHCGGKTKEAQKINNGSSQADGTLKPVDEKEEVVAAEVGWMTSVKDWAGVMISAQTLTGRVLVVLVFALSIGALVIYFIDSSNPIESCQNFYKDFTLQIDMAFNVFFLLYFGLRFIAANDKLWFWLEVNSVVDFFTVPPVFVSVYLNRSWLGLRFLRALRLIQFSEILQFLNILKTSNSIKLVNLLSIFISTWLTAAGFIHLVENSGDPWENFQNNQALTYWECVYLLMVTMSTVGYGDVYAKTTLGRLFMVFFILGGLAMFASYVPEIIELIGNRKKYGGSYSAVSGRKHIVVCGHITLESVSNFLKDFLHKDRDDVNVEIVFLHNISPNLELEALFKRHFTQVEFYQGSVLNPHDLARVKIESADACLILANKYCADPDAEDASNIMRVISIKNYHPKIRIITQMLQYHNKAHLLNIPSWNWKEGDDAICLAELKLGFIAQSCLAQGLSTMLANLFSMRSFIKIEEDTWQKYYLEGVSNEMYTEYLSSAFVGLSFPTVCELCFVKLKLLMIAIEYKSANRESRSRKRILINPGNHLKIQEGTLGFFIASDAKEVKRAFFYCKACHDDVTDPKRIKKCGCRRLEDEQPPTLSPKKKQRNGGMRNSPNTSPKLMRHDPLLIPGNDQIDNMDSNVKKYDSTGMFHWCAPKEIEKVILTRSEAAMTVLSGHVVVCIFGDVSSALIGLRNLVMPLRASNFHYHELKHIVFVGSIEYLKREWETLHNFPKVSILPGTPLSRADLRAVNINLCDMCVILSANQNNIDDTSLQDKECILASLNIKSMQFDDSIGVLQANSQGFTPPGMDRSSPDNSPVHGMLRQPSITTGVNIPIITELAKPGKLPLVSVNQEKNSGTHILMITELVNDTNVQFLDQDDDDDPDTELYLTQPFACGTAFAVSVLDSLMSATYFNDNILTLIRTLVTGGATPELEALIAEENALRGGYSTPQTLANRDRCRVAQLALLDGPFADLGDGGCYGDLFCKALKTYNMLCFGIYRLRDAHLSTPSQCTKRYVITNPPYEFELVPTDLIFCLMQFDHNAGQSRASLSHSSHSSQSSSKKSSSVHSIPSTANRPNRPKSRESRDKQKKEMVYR

whole-cell current at −100 mV ([1]; after adding 200 μM PE): −90.0±15.0 pA
change of whole-cell current on application [1]: nearly no currents changed
Compound: CNC[C@H](O)c1cccc(O)c1 [PE, phenylephrine]

Compound: endothelin-1 (CSCSSLMDKECVYFCHLDIIW; ends and bridges not checked; cysteine pairing not given here; UniProt P05305 53-73, looked up) [ET-1, a typical inducer of smooth muscle contraction]
F340/380, accounting for ET-1-induced calcium increase [2]: 1.47±0.03

effect on current [3]: completely decreased
Compound: [La+3] [La^3+]

whole-cell current at −100 mV ([1]; after adding 100 μM CCh): −460±169.5 pA
change of whole-cell current on application [1]: increased inward currents
Compound: C[N+](C)(C)CCOC(N)=O [CCh, carbachol]

Compound: CC[N+](CC)(CC)CC [TEA]
effect on outward current [4]: decreased in a dose-dependent manner
effect on outward current [5]: decreased in a dose-dependent manner
